Laboratory results as given in ChEMBL document CHEMBL1138255, “Enantioselective synthesis and vanilloid activity evaluation of 1-beta-(p-methoxycinnamoyl)polygodial, an antinociceptive compound from Drymis winteri barks” (Bioorg Med Chem Lett, 2007).

Assays:
[1] = target: Transient receptor potential cation channel subfamily V member 1 (Homo sapiens) (UniProt Q8NER1); experiment: Activity at human TRPV1 receptor expressed in HEK293 cells assessed as calcium influx relative to ionomycin; assay type: cell-based
Chain of Transient receptor potential cation channel subfamily V member 1 (Homo sapiens) (Q8NER1 whole entry): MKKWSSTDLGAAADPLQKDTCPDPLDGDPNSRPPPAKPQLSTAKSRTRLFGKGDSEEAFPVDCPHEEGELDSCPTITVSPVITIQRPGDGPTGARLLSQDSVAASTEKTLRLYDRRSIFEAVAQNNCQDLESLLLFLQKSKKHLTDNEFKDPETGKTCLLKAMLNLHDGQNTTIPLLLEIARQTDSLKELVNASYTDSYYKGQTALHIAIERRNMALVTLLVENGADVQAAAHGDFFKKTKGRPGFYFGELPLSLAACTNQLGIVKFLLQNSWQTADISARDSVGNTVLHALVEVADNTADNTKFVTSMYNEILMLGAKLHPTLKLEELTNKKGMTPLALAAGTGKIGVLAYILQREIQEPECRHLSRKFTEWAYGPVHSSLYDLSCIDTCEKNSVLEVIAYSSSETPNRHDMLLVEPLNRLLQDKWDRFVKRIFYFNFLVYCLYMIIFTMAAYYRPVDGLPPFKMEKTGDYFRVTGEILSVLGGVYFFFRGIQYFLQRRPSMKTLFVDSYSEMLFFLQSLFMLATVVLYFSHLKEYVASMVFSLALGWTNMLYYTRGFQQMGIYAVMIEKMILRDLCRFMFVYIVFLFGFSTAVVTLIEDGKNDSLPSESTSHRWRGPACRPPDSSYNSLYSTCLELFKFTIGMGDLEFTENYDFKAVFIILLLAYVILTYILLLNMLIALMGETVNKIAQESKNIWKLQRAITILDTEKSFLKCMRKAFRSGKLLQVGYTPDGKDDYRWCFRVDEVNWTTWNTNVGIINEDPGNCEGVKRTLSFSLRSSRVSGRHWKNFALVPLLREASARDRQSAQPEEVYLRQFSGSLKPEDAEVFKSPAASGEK

[2] = target: Transient receptor potential cation channel subfamily V member 1 (Homo sapiens) (UniProt Q8NER1); experiment: Activity at human TRPV1 receptor expressed in HEK293 cells assessed as calcium influx in presence of 5-iodo-resiniferatoxin; assay type: cell-based

SMILES | Activity [1] [%] | Activity [2] [%]
COc1ccc(/C=C/C(=O)O[C@@H]2CCC(C)(C)C3CC=C(CO)[C@H](CO)[C@]32C)cc1 (some centres undefined) | 0 | 
CC1(C)CC[C@@H](O)[C@@]2(C)C1CC=C(C=O)[C@@H]2C=O (some centres undefined) | 0 | 
COc1ccc(/C=C/C(=O)O[C@@H]2CCC(C)(C)C3CC=C(C=O)[C@H](C=O)[C@]32C)cc1 (some centres undefined) | 40.4 | 22
